Results taken from US11473145B2, “Methods for determining whether a patient suffering from rhabdomyolysis achieves a response with a TLR9 antagonist” (INSERM (INSTITUT NATIONAL DE LA SANTÉ ET DE LA RECHERCHE …, priority 2017, dated 2022).
“Also recorded” adds a separate entry of the source.

Key:
Format in all cases: in vivo, human
[1] = system: patients with lipin-1 disease; assay: Clinical follow-up: rhabdomyolysis episodes, muscle phenotype and muscle pain
Excerpt: (§1) We treated in 2016 two patients (P1, P2) with lipin-1 disease by hydroxychloroquine sulphate (plaquenil®) and two patients (P3, P4) with dantrolene sodium after obtaining the authorization by the CPP of Paris Descarte University (Comité pour la protection des personnes). Moreover the patient (P5) has been treated for one month by plaquenil® because of their cardiac dysfunction, their fatigability and their sleep disorders. Indeed we think that plaquenil® works well on the two patients treated (P1, P2) and P5's state was considered sufficiently serious to propose it. Plaquenil® was given at a dose of 6 mg/Kg/day into 1 intake (dose usually given in Lupus disease) to P1, P2 and P5.
(§2) Both patients 1 and 2 treated in vivo with Plaquenil® normalized their serum inflammatory profile in one month after the start of treatment (FIG. 1). IL-6 secretion increased in plasma when the two patients stopped their treatment (FIG. 1). The accumulation of mtDNA in plasma of the two patients before treatment decreases under treatment by Plaquenil® (FIG. 2). After Plaquenil® was stopped, the accumulation of mtDNA reappeared, then normalized when treatment was resumed. We observe a correlation between variations of IL-6 and mtDNA accumulation levels, and with the compliance of the treatment.
(§3) Patient 1 corrected their clinical muscle phenotype (Table 1). Physical maximum capacities were measured using six-minute walk (TC6′), Short-Form life quality by using Questionary (SF-36) to assess QOL for parent and for patient, and a self-assessment pain scale (EVA). […] Since then they have resumed treatment.

Creatine kinase (CK) = assay: Serum Creatine kinase (CK) level
Excerpt: as §1, §2, §3

[2] = system: patients with lipin-1 disease; assay: Six-minute walk test (physical maximum capacities) in patients treated by Plaquenil
Excerpt: as §1, §3

[3] = system: patients with lipin-1 disease; assay: Life quality questionnary PESDQL children
Excerpt: as §1, §3

[4] = system: patients with lipin-1 disease; assay: Life quality questionnary PESDQL parent
Excerpt: as §1, §3

[5] = system: patients with lipin-1 disease; assay: Self-assessment pain scale (EVA)
Excerpt: as §1, §3

IL-6 = IL-6 secretion in serum measured by ELISA (serum inflammatory profile); settings: for IL-6 concentration in serum: lipin-1 deficient patients
Method: FIG. 1. Inflammatory profile in serum of lipin-1 deficient patients in vivo. Above: IL-6 secretion in serum was measured by ELISA.
as §1, §2

[6] = system: mitochondrial DNA (mtDNA); assay: Quantity of mitochondrial DNA (qPCR) in plasma; settings: two patients (P1, P2)
Excerpt: FIG. 2. Quantity of mitochondrial DNA (qPCR) in plasma of two patients.
as §1, §2

[7] = the two patients, treatment resumed, winter 2016-2017

CCN(CCO)CCCC(C)Nc1ccnc2cc(Cl)ccc12 (stereo not shown) [Plaquenil®, hydroxychloroquine sulphate]
clinical muscle phenotype ([1]; Patient 1, under treatment): corrected | pain ([1]; patient 2, under treatment): disappeared | walking ability ([1]; patient 2, under treatment): did not improve markedly | new episode of rhabdomyolysis ([1]; patients 1 and 2, during 6 months of treatment): did not have any new episode of rhabdomyolysis | muscle pain [1, 7]: did not have muscle pain | rhabdomyolysis [1, 7]: did not do rhabdomyolysis | rhabdomyolysis after stopping treatment ([1]; the two patients, treatment stopped after 6 months (lack of compliance), hospitalized in intensive care): immediately underwent extensive rhabdomyolysis | CK (Creatine kinase (CK); patient 1, rhabdomyolysis after treatment was stopped): 160 000 U/L | CK (Creatine kinase (CK); patient 2, rhabdomyolysis after treatment was stopped): 300 000 U/L | level of serum Creatine kinase (CK) (Creatine kinase (CK); patients 1 and 2, under treatment): decreased | Six-minute walk test (normal 560-740) ([2]; patient P1, M 2 of treatment, 6 mg/Kg/day, M 0 before treatment 450 m): P1: 540 m | Six-minute walk test (normal 560-740) ([2]; patient P1, M 5 of treatment, M 0 450 m): P1: 520 m | Six-minute walk test (normal 560-740) ([2]; patient P1, M 9, after M 6-M 8 interruption of treatment, M 0 450 m): P1: 539 m | Six-minute walk test (normal 560-740) ([2]; patient P1, M 16, treatment resumed, M 0 450 m): P1: 530 | Six-minute walk test (normal 560-740) ([2]; patient P2, M 2 of treatment, 6 mg/Kg/day, M 0 before treatment 510 m): P2: 550 m | Six-minute walk test (normal 560-740) ([2]; patient P2, M 5 of treatment, M 0 510 m): P2: 595 m | Six-minute walk test (normal 560-740) ([2]; patient P2, M 9, after M 6-M 8 interruption of treatment, M 0 510 m): P2: 587 m | Six-minute walk test (normal 560-740) ([2]; patient P2, M 16, treatment resumed, M 0 510 m): P2: 590 | Questionnary (0: very well - 92: very bad) PESDQL children ([3]; patient P1, M 2 of treatment, M 0 before treatment 26): P1: 12 | Questionnary (0: very well - 92: very bad) PESDQL children ([3]; patient P1, M 5 of treatment, M 0 26): P1: 11 | Questionnary (0: very well - 92: very bad) PESDQL children ([3]; patient P1, M 9, after M 6-M 8 interruption of treatment, M 0 26): P1: 38 | Questionnary (0: very well - 92: very bad) PESDQL children ([3]; patient P1, M 16, treatment resumed, M 0 26): P1: 8 | Questionnary (0: very well - 92: very bad) PESDQL children ([3]; patient P2, M 2 of treatment, M 0 before treatment 45): P2: 32 | Questionnary (0: very well - 92: very bad) PESDQL children ([3]; patient P2, M 5 of treatment, M 0 45): P2: 35 | Questionnary (0: very well - 92: very bad) PESDQL children ([3]; patient P2, M 9, after M 6-M 8 interruption of treatment, M 0 45): P2: 47 | Questionnary (0: very well - 92: very bad) PESDQL children ([3]; patient P2, M 16, treatment resumed, M 0 45): P2: 30 | Questionnary PESDQL parent (0: very well - 92: very bad) ([4]; patient P1, M 2 of treatment, M 0 before treatment 30): P1: 22 | Questionnary PESDQL parent (0: very well - 92: very bad) ([4]; patient P1, M 5 of treatment, M 0 30): P1: 12 | Questionnary PESDQL parent (0: very well - 92: very bad) ([4]; patient P1, M 9, after M 6-M 8 interruption of treatment, M 0 30): P1: 31 | Questionnary PESDQL parent (0: very well - 92: very bad) ([4]; patient P1, M 16, treatment resumed, M 0 30): P1: 20 | Questionnary PESDQL parent (0: very well - 92: very bad) ([4]; patient P2, M 2 of treatment, M 0 before treatment 40): P2: 42 | Questionnary PESDQL parent (0: very well - 92: very bad) ([4]; patient P2, M 5 of treatment, M 0 40): P2: 33 | Questionnary PESDQL parent (0: very well - 92: very bad) ([4]; patient P2, M 9, after M 6-M 8 interruption of treatment, M 0 40): P2: 50 | Questionnary PESDQL parent (0: very well - 92: very bad) ([4]; patient P2, M 16, treatment resumed, M 0 40): P2: 35 | Pain Evaluation (EVA) (4: not painful - 40: very painful) ([5]; patient P1, M 2 of treatment, M 0 before treatment 24): P1: 16 | Pain Evaluation (EVA) (4: not painful - 40: very painful) ([5]; patient P1, M 5 of treatment, M 0 24): P1: 0 | Pain Evaluation (EVA) (4: not painful - 40: very painful) ([5]; patient P1, M 9, after M 6-M 8 interruption of treatment, M 0 24): P1: 4 | Pain Evaluation (EVA) (4: not painful - 40: very painful) ([5]; patient P1, M 16, treatment resumed, M 0 24): P1: 0 | Pain Evaluation (EVA) (4: not painful - 40: very painful) ([5]; patient P2, M 2 of treatment, M 0 before treatment 18): P2: 12 | Pain Evaluation (EVA) (4: not painful - 40: very painful) ([5]; patient P2, M 5 of treatment, M 0 18): P2: 0 | Pain Evaluation (EVA) (4: not painful - 40: very painful) ([5]; patient P2, M 9, after M 6-M 8 interruption of treatment, M 0 18): P2: 16 | Pain Evaluation (EVA) (4: not painful - 40: very painful) ([5]; patient P2, M 16, treatment resumed, M 0 18): P2: 0 | IL-6 concentration in serum (IL-6; under treatment): decreases | IL-6 concentration in serum (IL-6; when the treatment is resumed): decreases again | serum inflammatory profile (IL-6; patients 1 and 2, one month after the start of treatment, 6 mg/Kg/day): normalized | IL-6 secretion (serum/plasma) (IL-6; the two patients, after interruption of treatment): increased | accumulation of mtDNA in plasma ([6]; after treatment was stopped): reappeared; also recorded: increases | accumulation of mtDNA in plasma ([6]; under treatment versus before treatment): decreases | accumulation of mtDNA in plasma ([6]; when treatment was resumed): normalized; also recorded: decreases again
